The test system of experiment [1] is B. gingivalis N-CBz-Gly-Gly-Arg peptidase. Kind of experiment: Effect of inhibitors and enhancers on B. gingivalis peptidase activity. The experiment is classed as biochemical, Bacteroides gingivalis. The note with it: for Inhibition of B. gingivalis enzyme activity by metals: high concentrations.
The subject of experiment [2] is Actinomyces israeli. The experiment is classed as biochemical. As for the experimental part:
(§1) The enzyme activity was measured by the chromogenic properties of N-CBz-glycyl-glycyl-L-arginine-β-naphthylamide which upon hydrolysis gives a visible color. The aminopeptidase activities listed in the table reflect the nanomoles of β-naphthylamine liberated after 60 minutes under the conditions described below.
(§2) After mixing, the solution is incubated for 1 hour at 37° C. and then 0.4 ml of a solution of stabilized diazonium salt, Fast Garnet GBC (0.5 mg/ml) in a 1M acetic acid buffer (pH 4.2), containing 10% Tween 20 was added to the mixture. After standing for 15 minutes at room temperature, the color reaction can be read manually by comparison with standard solutions or the absorbancy can be determined using a spectrophotometer at 525 nm. The reaction mixture without enzyme solution is used as a control.
(§3) The enzyme activity and the aminopeptidase activities were determined in the manner described above in regard to Table I.

Experiment [3] deals with S. sanguis. It is filed as biochemical. As for the experimental part: as §1, §2, §3
Experiment [4] concerns A. viscosus. The experiment is classed as biochemical. As for the experimental part: as §1, §2, §3
Experiment [5] deals with S. mutans. It is filed as biochemical. As for the experimental part:
as §1, §2, §3

For experiment [6], the system named is Eikenella corrodens. It is filed as biochemical. As for the experimental part:
as §1, §2, §3

In experiment [7] the test system is "Anaerobic vibrio". The experiment is classed as biochemical. As for the experimental part:
as §1, §2, §3

In experiment [8] the test system is A. seminis. It is filed as biochemical. As for the experimental part:
as §1, §2, §3

The subject of experiment [9] is Campylobacter sputorum. The experiment is classed as biochemical. As for the experimental part:
as §1, §2, §3

Experiment [10] deals with Fusobacterium nucleatum. The experiment is classed as biochemical. As for the experimental part:
as §1, §2, §3

In experiment [11] the test system is Veillonella sp. It is filed as biochemical. As for the experimental part: as §1, §2, §3
For experiment [12], the system named is Capnocytophaga sp. The experiment is classed as biochemical. As for the experimental part: as §1, §2
In experiment [13] the test system is Capnocytophaga gingivalis. It is filed as biochemical. As for the experimental part: as §1, §2
Experiment [14] concerns B. mel. ss. intermedius. The experiment is classed as biochemical. As for the experimental part:
as §1, §2

The subject of experiment [15] is B. levii. It is filed as biochemical. As for the experimental part:
as §1, §2

Experiment [16] concerns C. ochracea. It is filed as biochemical. As for the experimental part:
as §1, §2

Experiment [17] has as its system C. sputigena. Put plainly: Aminopeptidase activity on β-naphthylamide substrates. The experiment is classed as biochemical. As for the experimental part: as §1, §2
The subject of experiment [18] is B. corporis. The description is as above. The experiment is classed as biochemical. As for the experimental part: as §1, §2
For experiment [19], the system named is B. melaninogenicus. The description is as above. The experiment is classed as biochemical. As for the experimental part:
as §1, §2

Experiment [20] concerns B. intermedius. Described as above. The experiment is classed as biochemical. As for the experimental part: as §1, §2
The subject of experiment [21] is B. denticola. The experiment is described as above. The experiment is classed as biochemical. As for the experimental part: as §1, §2
The test system of experiment [22] is A. suis. Described as above. The experiment is classed as biochemical. As for the experimental part: as §1, §2, §3
Experiment [23] relates to L. fermentum. The experiment is described as above. The experiment is classed as biochemical. As for the experimental part: as §1, §2, §3
The test system of experiment [24] is Veillonella alcalesens. Described as above. It is filed as biochemical. As for the experimental part: as §1, §2, §3
Experiment [25] has as its system S. salivarius. The description is as above. The experiment is classed as biochemical. As for the experimental part:
as §1, §2, §3

Experiment [26] concerns F. periodonticum. The experiment is described as above. It is filed as biochemical. As for the experimental part: as §1, §2, §3
For experiment [27], the system named is A. equuli. The description is as above. The experiment is classed as biochemical. As for the experimental part: as §1, §2, §3
Experiment [28] relates to V. parvula. It is filed as biochemical. As for the experimental part:
as §1, §2, §3

Experiment [29] concerns Haemophilus aphrophilus. Kind of experiment: Aminopeptidase activity on β-naphthylamide substrates. It is filed as biochemical. As for the experimental part: as §1, §2, §3
The subject of experiment [30] is Lactobacillus casei. The experiment is described as above. The experiment is classed as biochemical. As for the experimental part:
as §1, §2, §3

Experiment [31] has as its system Bacteroides gingivalis. The experiment is classed as biochemical. As for the experimental part: as §1, §2
[32] abbreviates: strain D31A-24, β-naphthylamine liberated after 60 minutes, 37° C.

“And” between values parts separate entries of the source, which are not always exact repeats. Equal entries are not always repeated. Where two headings read alike, the source gives them in different places. Numbered stars: 1 amine (or outer) side, 2 acyl side, 3 side chain; on linkers, the order of the positions; unused ones are H or OH. Peptide text beside a SMILES is read from it. CO = O=C([*:1])[*:2]

Consider `CC(C)[C@H](NC(=O)[C@H](CCCNC(=N)N)NC(=O)N[C@@H](Cc1ccccc1)C(=O)O)C(=O)N[C@H](C=O)CCCNC(=N)N` [antipain] ({Phe-CO}-Arg-Val-Arg-aldehyde), for which the “Inhibition of B. gingivalis N-CBz-glycyl-glycyl-arginylpeptidase enzyme activity” value in experiment [1] is “inhibited”.

`[Cd]` [cadmium]: in [1], the “Sensitivity of B. gingivalis enzyme activity to heavy metal ions” value (“Sensitivity” for short) is given as “sensitive” and the “Inhibition of B. gingivalis enzyme activity by metals” value (from here on “Inhibition … by metals”) was “inhibited”.

As for `[Cu]` [copper], in [1], the “Sensitivity” value is given as “sensitive” and the “Inhibition … by metals” value is given as “inhibited”.

Turning to `NCC(=O)N1CCC[C@H]1C(=O)O` [Gly-Pro, Glycyl-proline] (H-Gly-Pro-OH), the Aminopeptidase activity is 0 in experiment [2]; 75 and 109 in experiment [3]; 0 in experiment [4]; 22 in [5]; 0 in experiment [6]; 0 in experiment [7]. The Aminopeptidase activity was 0 in experiment [8]; 1 in experiment [9]; 0 in experiment [10]; 0 nmol in [10] (setting [32]); 0 in [11]; 2 in experiment [12]. Besides, the Aminopeptidase activity is 19 in [13]; 15 and 22 and 27 in experiment [14]; 22 and 17 in [15]; 11 in [16]; 16 in experiment [17]; 54 in experiment [18]. The Aminopeptidase activity in [19] turned out to be 26; in experiment [20] it was 10; in experiment [21], 17; in experiment [22] it was 0; in [23], 5; in experiment [24], 0. Moreover, the Aminopeptidase activity in experiment [25] was 105 and 90; in [26], 1; in [27], 0.

Turning to `N=C(N)NCCC[C@H](NC(=O)[C@@H](N)CCCNC(=N)N)C(=O)O` [Arg-Arg, Arginyl-arginine] (H-Arg-Arg-OH), the Aminopeptidase activity is reported as 0 in experiment [2]; 0 in experiment [4]; 1 in [5]; 0 in experiment [28]; 0 in [6]; 0 in experiment [7]. In addition, the Aminopeptidase activity in experiment [8] is 0; in experiment [9], 1; in experiment [10], 1; in experiment [10] (setting [32]), 2 nmol; in experiment [11], 0; in experiment [12], 0. The Aminopeptidase activity in experiment [13] turned out to be 65; in experiment [16], 71; in experiment [17] (strain ATCC 33123, β-naphthylamine liberated after 60 minutes, 37° C.), 18 nmol; in [18] (strain ATCC 33547, β-naphthylamine liberated after 60 minutes, 37° C.) it was 4 nmol; in [19] (strain ATCC 25845, β-naphthylamine liberated after 60 minutes, 37° C.), 24 nmol; in experiment [20] (strain ATCC 25611, β-naphthylamine liberated after 60 minutes, 37° C.), 15 nmol. For the same compound, the Aminopeptidase activity was 16 nmol in experiment [21] (strain ATCC 33185, β-naphthylamine liberated after 60 minutes, 37° C.); 0 nmol in [22] (strain ATCC 15557, β-naphthylamine liberated after 60 minutes, 37° C.); 0 nmol in experiment [23] (strain ATCC 11581, β-naphthylamine liberated after 60 minutes, 37° C.); 1 nmol in experiment [29] (strain ATCC 13252, β-naphthylamine liberated after 60 minutes, 37° C.); 1 nmol in experiment [29] (strain ATCC 19415, β-naphthylamine liberated after 60 minutes, 37° C.); 0 nmol in experiment [29] (strain NCTC 5908, β-naphthylamine liberated after 60 minutes, 37° C.). Further, the Aminopeptidase activity in experiment [24] (strain ATCC 11748, β-naphthylamine liberated after 60 minutes, 37° C.) is 0 nmol; in experiment [25] (strain ATCC 9759, β-naphthylamine liberated after 60 minutes, 37° C.) it was 24 nmol; in experiment [25] (strain ATCC 25975, β-naphthylamine liberated after 60 minutes, 37° C.), 15 nmol; in experiment [30] (strain ATCC 7469, β-naphthylamine liberated after 60 minutes, 37° C.) it was 1 nmol; in experiment [30] (strain ATCC 11578, β-naphthylamine liberated after 60 minutes, 37° C.), 1 nmol; in experiment [30] (strain ATCC 11582, β-naphthylamine liberated after 60 minutes, 37° C.), 0 nmol. The Aminopeptidase activity in [26] (strain EK1-15, β-naphthylamine liberated after 60 minutes, 37° C.) was 1 nmol; in [27] (strain ATCC 19392, β-naphthylamine liberated after 60 minutes, 37° C.), 0 nmol.

In the case of `C[S+](C)[O-]` [DMSO, dimethyl-sulfoxide], the “Inhibition of B. gingivalis N-CBz-glycyl-glycyl-arginylpeptidase enzyme activity” value in experiment [1] was “inhibited”.

mercury: in experiment [1], the “Sensitivity” value was “sensitive” and the “Inhibition … by metals” value is on record as “inhibited”.

With `[Zn]` [zinc], in experiment [1], the “Inhibition … by metals” value was “inhibited”.

Take `[Co]` [cobalt]: the “Inhibition … by metals” value in experiment [1] is reported as “inhibited”.

`CC(=O)N[C@@H](CC(C)C)C(=O)N[C@@H](CC(C)C)C(=O)N[C@H](C=O)CCCNC(=N)N` [leupeptin]: the “Inhibition of B. gingivalis N-CBz-glycyl-glycyl-arginylpeptidase enzyme activity” value in experiment [1] is on record as “inhibited”.

`O=S(=O)(F)Cc1ccccc1` [phenylmethylsulfonylfluoride]: the “Inhibition of B. gingivalis N-CBz-glycyl-glycyl-arginylpeptidase enzyme activity” value in experiment [1] is “inhibited”.

`O=C(O)c1cc[c]([Hg][Cl])cc1` [p-chloromercuribenzoic acid]: the “Inhibition of B. gingivalis N-CBz-glycyl-glycyl-arginylpeptidase enzyme activity” value in [1] is on record as “inhibited”.

For `C[C@H](NC(=O)[C@@H](N)CCCCN)C(=O)O` [Lys-Ala, Lysyl-alanine] (H-Lys-Ala-OH), the Aminopeptidase activity in [2] was found to be 0; in experiment [4] it was 0; in experiment [5] it was 2; in [28] it was 0; in [6], 0; in experiment [7], 0. For the same compound, the Aminopeptidase activity in experiment [8] stood at 0; in [9] it was 0; in experiment [10] (setting [32]), 0 nmol; in experiment [11] it was 0; in [12], 14; in [13], 54. Further, the Aminopeptidase activity in [31] is 78 and 77 and 50 and 63 and 46 and 43; in experiment [15] it was 45 and 48; in experiment [16] it was 50; in experiment [17] it was 36; in [18], 68; in experiment [19], 78. Besides, the Aminopeptidase activity in experiment [20] is 50; in [21], 89; in [22], 0; in [23] it was 2; in experiment [29] it was 0; in experiment [24], 0. The Aminopeptidase activity in experiment [30], in [26] and in experiment [27] was 0 in each case.
